Reference: the NIST ThermoML archive (doi:10.1021/acs.jced.8b00975)

Experiment: xn = mol fraction of the nth substance listed
Details: Liquid, Vibrating tube method

C=C(C)C(=O)OCCN(C)C [2-(dimethylamino)ethyl methylpropenoate] + CCCO
mass density [kg/m3]
Details	100 kPa	5000 kPa	10000 kPa	15000 kPa	20000 kPa	25000 kPa	30000 kPa	35000 kPa
293.15 K, x1 = 0.03	813.1	817.13	820.85	824.33	827.64	830.83	833.97	837.12
293.15 K, x1 = 0.0598	822.05	825.95	829.65	833.15	836.5	839.72	842.82	845.84
293.15 K, x1 = 0.0998	832.86	836.81	840.49	843.94	847.22	850.38	853.46	856.5
293.15 K, x1 = 0.1502	845.14	849.07	852.65	856.05	859.3	862.47	865.58	868.68
293.15 K, x1 = 0.2003	855.86	859.68	863.26	866.65	869.89	873.06	876.18	879.33
293.15 K, x1 = 0.2502	865.17	868.95	872.5	875.88	879.12	882.27	885.37	888.47
293.15 K, x1 = 0.3013	873.68	877.48	881.04	884.41	887.65	890.79	893.88	896.98
293.15 K, x1 = 0.3992	887.54	891.31	894.85	898.21	901.43	904.58	907.69	910.81
293.15 K, x1 = 0.4482	893.36	897.13	900.67	904.04	907.28	910.43	913.53	916.64
293.15 K, x1 = 0.4998	898.97	902.77	906.35	909.73	912.96	916.08	919.13	922.15
293.15 K, x1 = 0.5509	903.96	907.77	911.33	914.67	917.88	921	924.1	927.23
293.15 K, x1 = 0.5986	908.27	912.04	915.56	918.89	922.08	925.2	928.3	931.47
293.15 K, x1 = 0.699	916.1	919.83	923.35	926.69	929.91	933.05	936.14	939.24
293.15 K, x1 = 0.7994	922.7	926.51	930.05	933.38	936.55	939.65	942.73	945.86
293.15 K, x1 = 0.8519	925.73	929.5	933.03	936.39	939.61	942.75	945.87	949.02
293.15 K, x1 = 0.8992	928.25	931.98	935.56	938.89	942.14	945.3	948.43	951.54
293.15 K, x1 = 0.9284	929.69	933.42	936.97	940.36	943.63	946.83	949.98	953.12
293.15 K, x1 = 0.9587	931.16	934.9	938.45	941.84	945.11	948.29	951.43	954.55
303.15 K, x1 = 0.0307	805.44	809.69	813.63	817.3	820.75	824.03	827.2	830.29
303.15 K, x1 = 0.0599	813.96	818.16	822.06	825.7	829.13	832.41	835.6	838.73
303.15 K, x1 = 0.1003	824.72	828.9	832.79	836.41	839.84	843.1	846.24	849.31
303.15 K, x1 = 0.201	847.03	851.16	854.99	858.56	861.95	865.23	868.44	871.66
303.15 K, x1 = 0.3004	864.34	868.29	872.06	875.68	879.16	882.5	885.74	888.87
303.15 K, x1 = 0.4007	878.29	882.23	885.98	889.57	893.03	896.41	899.73	903.03
303.15 K, x1 = 0.4507	884.12	888.05	891.79	895.39	898.86	902.25	905.59	908.92
303.15 K, x1 = 0.4985	889.33	893.25	896.99	900.58	904.06	907.45	910.79	914.12
303.15 K, x1 = 0.5535	894.64	898.56	902.3	905.89	909.38	912.79	916.16	919.52
303.15 K, x1 = 0.5907	897.88	901.87	905.63	909.22	912.68	916.07	919.43	922.81
303.15 K, x1 = 0.7009	906.35	910.27	914.01	917.6	921.09	924.52	927.94	931.39
303.15 K, x1 = 0.8	912.95	916.83	920.56	924.17	927.7	931.16	934.59	938.01
303.15 K, x1 = 0.9043	918.6	922.52	926.3	929.96	933.53	937.03	940.48	943.91
303.15 K, x1 = 0.9269	919.6	923.57	927.36	931	934.55	938.03	941.51	945.01
303.15 K, x1 = 0.9551	921.07	924.99	928.75	932.41	935.97	939.47	942.94	946.41
313.15 K, x1 = 0.0303	797.13	801.51	805.58	809.4	813.02	816.51	819.93	823.33
313.15 K, x1 = 0.0602	805.6	809.95	814.02	817.86	821.5	825	828.39	831.72
313.15 K, x1 = 0.1007	816.21	820.42	824.41	828.2	831.83	835.35	838.78	842.17
313.15 K, x1 = 0.2003	838.07	842.22	846.16	849.93	853.55	857.04	860.44	863.76
313.15 K, x1 = 0.2989	854.98	859.16	863.14	866.94	870.58	874.08	877.48	880.8
313.15 K, x1 = 0.4005	869.05	873.2	877.16	880.94	884.58	888.1	891.52	894.87
313.15 K, x1 = 0.4513	875.07	879.17	883.11	886.91	890.57	894.1	897.51	900.82
313.15 K, x1 = 0.5026	880.52	884.58	888.5	892.29	895.96	899.51	902.95	906.3
313.15 K, x1 = 0.5521	885.29	889.39	893.33	897.12	900.78	904.32	907.74	911.06
313.15 K, x1 = 0.6025	889.7	893.77	897.71	901.52	905.22	908.79	912.25	915.59
313.15 K, x1 = 0.6976	897.07	901.19	905.15	908.97	912.65	916.22	919.67	923.02
313.15 K, x1 = 0.8037	903.96	908.07	912.04	915.87	919.56	923.14	926.61	929.99
313.15 K, x1 = 0.9043	909.46	913.62	917.61	921.46	925.17	928.79	932.32	935.78
313.15 K, x1 = 0.933	910.82	914.96	918.95	922.81	926.56	930.22	933.79	937.29
313.15 K, x1 = 0.9605	912.22	916.36	920.35	924.21	927.96	931.63	935.23	938.78
